Measurements from ChEMBL document CHEMBL1158245, “Antifungal and molluscicidal saponins from Serjania salzmanniana” (J Nat Prod, 1996).

Legend:
[1] = test system: Biomphalaria alexandrina; assay: Molluscicidal activity against Biomphalaria alexandrina assessed as number of dead snail at 10 ppm after 48 hrs; assay type: organism-based; settings: in vivo
[2] = test system: Biomphalaria alexandrina; assay: Molluscicidal activity against Biomphalaria alexandrina assessed as number of dead snail at 20 ppm after 48 hrs; assay type: organism-based; settings: in vivo
[3] = test system: Biomphalaria alexandrina; assay: Molluscicidal activity against Biomphalaria alexandrina assessed as number of dead snail at 10 ppm after 24 hrs; assay type: organism-based; settings: in vivo
[4] = test system: Biomphalaria alexandrina; assay: Molluscicidal activity against Biomphalaria alexandrina assessed as number of dead snail at 20 ppm after 24 hrs; assay type: organism-based; settings: in vivo
[5] = test system: Biomphalaria alexandrina; assay: Molluscicidal activity against Biomphalaria alexandrina assessed as number of dead snail at 10 ppm after 24 hrs allowed to recover for an additional 24 hrs; assay type: organism-based; settings: in vivo
[6] = test system: Biomphalaria alexandrina; assay: Molluscicidal activity against Biomphalaria alexandrina assessed as number of dead snail at 20 ppm after 24 hrs allowed to recover for an additional 24 hrs; assay type: organism-based; settings: in vivo
[7] = test system: Cryptococcus neoformans; assay: Antifungal activity against Cryptococcus neoformans ATCC 36556 after 48 hrs by microplate broth assay; assay type: functional; settings: ATCC 36556, 48 h
[8] = test system: Aspergillus fumigatus; assay: Antifungal activity against Aspergillus fumigatus ATCC 13073 after 48 hrs by microplate broth assay; assay type: functional; settings: ATCC 13073, 48 h
[9] = test system: Candida albicans; assay: Antifungal activity against Candida albicans ATCC 10259 after 24 hrs by microplate broth assay; assay type: functional; settings: ATCC 10259, 24 h

With `C[C@@H]1O[C@@H](O[C@H]2[C@H](O[C@H]3CC[C@]4(C)[C@H]5CC=C6[C@@H]7CC(C)(C)CC[C@]7(C(=O)O)CC[C@@]6(C)[C@]5(C)CC[C@H]4C3(C)C)OC[C@H](O[C@@H]3O[C@H](CO)[C@@H](O)[C@H](O)[C@H]3O)[C@@H]2O)[C@H](O)[C@H](O)[C@H]1O` [HEDERACOLCHISIDE A1] the Activity [1] was 100%, the Activity [2] was 100% and the Activity [3] was “Active”. The Activity [4] was “Active”, the Activity [5] was “Active” and the Activity [6] was “Active”.

`C[C@@H]1O[C@@H](O[C@H]2[C@H](O[C@H]3CC[C@@]4(C)[C@@H](CC[C@]5(C)[C@@H]4CC=C4[C@@H]6CC(C)(C)CC[C@]6(C(=O)O)CC[C@]45C)[C@]3(C)CO)OC[C@H](O[C@@H]3O[C@H](CO)[C@@H](O)[C@H](O)[C@H]3O)[C@@H]2O)[C@H](O)[C@H](O)[C@H]1O` [HEDERACOLCHISIDE A] showed an Activity [1] of 90%, an MIC [7] of no more than 8 µg/mL and an MIC [8] of no less than 250 µg/mL. For the same compound, the Activity [2] was 100%, the Activity [4] was “Active” and the MIC [9] was no more than 16 µg/mL. For the same compound, the Activity [6] was “Active”.

`C[C@@H]1O[C@@H](O[C@H]2[C@H](O[C@H]3CC[C@]4(C)[C@H]5CC=C6[C@@H]7CC(C)(C)CC[C@]7(C(=O)O)CC[C@@]6(C)[C@]5(C)CC[C@H]4[C@]3(C)C=O)OC[C@H](O[C@@H]3O[C@H](CO)[C@@H](O)[C@H](O)[C@H]3O)[C@@H]2O)[C@H](O)[C@H](O)[C@H]1O` [SALZMANNIANOSIDE A] gave an Activity [1] of 0%, an MIC [7] of no more than 8 µg/mL and an MIC [8] of no less than 125 µg/mL. For the same compound, the Activity [2] was 100%, the Activity [3] was “Not Active” and the Activity [4] was “Active”. The MIC [9] was no more than 16 µg/mL, the Activity [5] was “Not Active” and the Activity [6] was “Active”.

In the case of `C[C@@H]1O[C@@H](O[C@H]2[C@H](O[C@H]3CC[C@@]4(C)[C@@H](CC[C@]5(C)[C@@H]4CC=C4[C@@H]6CC(C)(C)CC[C@]6(C(=O)O)CC[C@]45C)[C@]3(C)CO)OC[C@H](O[C@@H]3O[C@H](CO)[C@@H](O)[C@H](O)[C@H]3O)[C@@H]2O)[C@H](O)[C@H](O[C@@H]2OC[C@H](O)[C@H](O)[C@H]2O)[C@H]1O` [SALZMANNIANOSIDE B], the Activity [1] is reported as 100%, the MIC [7] is reported as no more than 8 µg/mL and the MIC [8] is reported as no less than 250 µg/mL. For the same compound, the Activity [2] was 70%, the MIC [9] was no less than 125 µg/mL and the Activity [5] was “Active”.
